Results published in the CheMixHub viscosity set.

Test: xn = mol fraction of the nth substance listed

CCOCCO + O
viscosity [mPa·s]
Settings | 101 kPa | 101.33 kPa
293.15 K, x1 = 0.02202 | 1.422 | –
293.15 K, x1 = 0.04761 | 2.02 | –
293.15 K, x1 = 0.07883 | 2.731 | –
293.15 K, x1 = 0.1177 | 3.402 | –
293.15 K, x1 = 0.1666 | 3.943 | –
293.15 K, x1 = 0.2304 | 4.205 | –
293.15 K, x1 = 0.318 | 4.219 | –
293.15 K, x1 = 0.4441 | 3.838 | –
293.15 K, x1 = 0.5303 | 3.471 | –
293.15 K, x1 = 0.6418 | 3.081 | –
293.15 K, x1 = 0.7202 | 2.836 | –
293.15 K, x1 = 0.8271 | 2.502 | –
293.15 K, x1 = 0.9078 | 2.27 | –
298.15 K, x1 = 0.0104 | – | 1.04
298.15 K, x1 = 0.0217 | – | 1.25
298.15 K, x1 = 0.0341 | – | 1.44
298.15 K, x1 = 0.0476 | – | 1.7
298.15 K, x1 = 0.0625 | – | 1.97
298.15 K, x1 = 0.0789 | – | 2.26
298.15 K, x1 = 0.0972 | – | 2.54
298.15 K, x1 = 0.1176 | – | 2.8
298.15 K, x1 = 0.1406 | – | 3.05
298.15 K, x1 = 0.1666 | – | 3.24
298.15 K, x1 = 0.1964 | – | 3.38
298.15 K, x1 = 0.2307 | – | 3.48
298.15 K, x1 = 0.2707 | – | 3.47
298.15 K, x1 = 0.3181 | – | 3.45
298.15 K, x1 = 0.3749 | – | 3.33
298.15 K, x1 = 0.4443 | – | 3.14
298.15 K, x1 = 0.5311 | – | 2.89
298.15 K, x1 = 0.6428 | – | 2.58
298.15 K, x1 = 0.7916 | – | 2.19
298.15 K, x2 = 0.11 | – | 1.991
298.15 K, x2 = 0.2089 | – | 2.215
298.15 K, x2 = 0.294 | – | 2.441
298.15 K, x2 = 0.4058 | – | 2.765
298.15 K, x2 = 0.5043 | – | 3.031
298.15 K, x2 = 0.5995 | – | 3.311
298.15 K, x2 = 0.7033 | – | 3.504
298.15 K, x2 = 0.8037 | – | 3.376
298.15 K, x2 = 0.902 | – | 2.55
303.15 K, x1 = 0.0104 | – | 0.92
303.15 K, x1 = 0.0217 | – | 1.11
303.15 K, x1 = 0.02202 | 1.097 | –
303.15 K, x1 = 0.0341 | – | 1.27
303.15 K, x1 = 0.0476 | – | 1.5
303.15 K, x1 = 0.04761 | 1.485 | –
303.15 K, x1 = 0.0625 | – | 1.72
303.15 K, x1 = 0.07883 | 1.928 | –
303.15 K, x1 = 0.0789 | – | 1.96
303.15 K, x1 = 0.0972 | – | 2.18
303.15 K, x1 = 0.1176 | – | 2.4
303.15 K, x1 = 0.1177 | 2.355 | –
303.15 K, x1 = 0.1406 | – | 2.61
303.15 K, x1 = 0.1666 | 2.703 | 2.78
303.15 K, x1 = 0.1964 | – | 2.9
303.15 K, x1 = 0.2304 | 2.92 | –
303.15 K, x1 = 0.2307 | – | 3
303.15 K, x1 = 0.2707 | – | 3.03
303.15 K, x1 = 0.318 | 2.951 | –
303.15 K, x1 = 0.3181 | – | 3.02
303.15 K, x1 = 0.3749 | – | 2.93
303.15 K, x1 = 0.4443 | – | 2.77
303.15 K, x1 = 0.5303 | 2.547 | –
303.15 K, x1 = 0.5311 | – | 2.56
303.15 K, x1 = 0.6418 | 2.28 | –
303.15 K, x1 = 0.6428 | – | 2.31
303.15 K, x1 = 0.7202 | 2.126 | –
303.15 K, x1 = 0.7916 | – | 1.97
303.15 K, x1 = 0.8271 | 1.912 | –
303.15 K, x1 = 0.9078 | 1.764 | –
308.15 K, x1 = 0.1406 | – | 2.24
308.15 K, x1 = 0.1666 | – | 2.38
308.15 K, x1 = 0.1964 | – | 2.49
308.15 K, x1 = 0.2307 | – | 2.58
308.15 K, x1 = 0.2707 | – | 2.62
308.15 K, x1 = 0.3181 | – | 2.61
308.15 K, x1 = 0.3749 | – | 2.55
308.15 K, x1 = 0.4443 | – | 2.43
308.15 K, x1 = 0.5311 | – | 2.26
308.15 K, x1 = 0.6428 | – | 2.04
308.15 K, x1 = 0.7916 | – | 1.76
308.15 K, x2 = 0.1041 | – | 1.418
308.15 K, x2 = 0.1944 | – | 1.621
308.15 K, x2 = 0.2933 | – | 1.785
308.15 K, x2 = 0.4988 | – | 2.148
308.15 K, x2 = 0.5964 | – | 2.307
308.15 K, x2 = 0.699 | – | 2.385
308.15 K, x2 = 0.7918 | – | 2.32
308.15 K, x2 = 0.8469 | – | 2.111
308.15 K, x2 = 0.8976 | – | 1.787
308.15 K, x2 = 0.9491 | – | 1.279
313.15 K, x1 = 0.02202 | 0.8665 | –
313.15 K, x1 = 0.04761 | 1.14 | –
313.15 K, x1 = 0.07883 | 1.456 | –
313.15 K, x1 = 0.1177 | 1.727 | –
313.15 K, x1 = 0.1666 | 1.967 | –
313.15 K, x1 = 0.2304 | 2.124 | –
313.15 K, x1 = 0.318 | 2.14 | –
313.15 K, x1 = 0.4441 | 2.011 | –
313.15 K, x1 = 0.5303 | 1.9 | –
313.15 K, x1 = 0.6418 | 1.731 | –
313.15 K, x1 = 0.7202 | 1.614 | –
313.15 K, x1 = 0.8271 | 1.491 | –
313.15 K, x1 = 0.9078 | 1.399 | –
323.15 K, x1 = 0.02202 | 0.6974 | –
323.15 K, x1 = 0.04761 | 0.8748 | –
323.15 K, x1 = 0.07883 | 1.105 | –
323.15 K, x1 = 0.1177 | 1.32 | –
323.15 K, x1 = 0.1666 | 1.479 | –
323.15 K, x1 = 0.2304 | 1.613 | –
323.15 K, x1 = 0.318 | 1.656 | –
323.15 K, x1 = 0.4441 | 1.591 | –
323.15 K, x1 = 0.5303 | 1.514 | –
323.15 K, x1 = 0.6418 | 1.398 | –
323.15 K, x1 = 0.7202 | 1.324 | –
323.15 K, x1 = 0.8271 | 1.212 | –
323.15 K, x1 = 0.9078 | 1.133 | –

CC(C)CCO + c1ccccc1
viscosity [mPa·s], 101 kPa
Settings | 293.15 K | 298.15 K | 303.15 K | 308.15 K | 313.15 K | 318.15 K | 323.15 K
x1 = 0.05 | 0.673 | 0.627 | 0.586 | 0.548 | 0.515 | 0.484 | 0.456
x1 = 0.1 | 0.705 | 0.656 | 0.612 | 0.573 | 0.537 | 0.505 | 0.475
x1 = 0.15 | 0.739 | 0.688 | 0.641 | 0.6 | 0.562 | 0.527 | 0.496
x1 = 0.2 | 0.777 | 0.723 | 0.673 | 0.629 | 0.589 | 0.552 | 0.519
x1 = 0.25 | 0.819 | 0.761 | 0.708 | 0.661 | 0.618 | 0.58 | 0.544
x1 = 0.3 | 0.866 | 0.804 | 0.748 | 0.697 | 0.651 | 0.61 | 0.572
x1 = 0.35 | 0.919 | 0.852 | 0.791 | 0.737 | 0.688 | 0.643 | 0.602
x1 = 0.4 | 0.979 | 0.906 | 0.84 | 0.782 | 0.728 | 0.68 | 0.636
x1 = 0.45 | 1.046 | 0.967 | 0.896 | 0.832 | 0.774 | 0.722 | 0.674
x1 = 0.5 | 1.124 | 1.037 | 0.96 | 0.89 | 0.826 | 0.769 | 0.717
x1 = 0.55 | 1.214 | 1.119 | 1.033 | 0.956 | 0.886 | 0.823 | 0.766
x1 = 0.6 | 1.321 | 1.214 | 1.118 | 1.032 | 0.955 | 0.885 | 0.822
x1 = 0.65 | 1.447 | 1.326 | 1.219 | 1.122 | 1.036 | 0.957 | 0.887
x1 = 0.7 | 1.6 | 1.462 | 1.339 | 1.23 | 1.131 | 1.042 | 0.962
x1 = 0.75 | 1.789 | 1.629 | – | – | – | – | –
